The values that follow come from patent US8193223B2, “1,2,3-triazole derivatives as sigma receptor inhibitors” (Laboratorios Del Dr. Esteve, S.A., priority 2006, dated 2012).

This assay has as its target T1, sigma-1 receptor (Cavia porcellus, UniProt Q60492).
T1 construct: from tissue; host or cells: guinea pig brain membranes
As to the kind of experiment: [3H](+)-pentazocine binding assay for the sigma-1 receptor in guinea pig brain membranes. Particulars: [3H](+)-pentazocine 0.5 nM; for Sigma-1 Inhibition percent (0.01 μM): compound 0.01 μM; for Sigma-1 Inhibition percent (0.1 μM): compound 0.1 μM. On the procedure: Some of the compounds synthesized according to the procedures described above were tested for their activity as sigma-1 inhibitors. The following protocol was followed:
Brain membrane preparation and binding assays for the […] were performed as described (DeHaven-Hudkins et al., 1992) with some modifications. In brief, guinea pig brains were homogenized in 10 vols. (w/v) of Tris-HCl 50 mM 0.32 M sucrose, pH 7.4, with a Kinematica Polytron PT 3000 at 15000 r.p.m. for 30 s. The homogenate was centrifuged at 1000 g for 10 min at 4° C. and the supernatants collected and centrifuged again at 48000 g for 15 min at 4° C. The pellet was resuspended in 10 volumes of Tris-HCl buffer (50 mM, pH 7.4), incubated at 37° C. for 30 min, and centrifuged at 48000 g for 20 min at 4° C. Following this, the pellet was resuspended in fresh Tris-HCl buffer (50 mM, pH 7.4) and stored on ice until use.
Each assay tube contained 10 μL of [^3H](+)-pentazocine (final concentration of 0.5 nM), 900 μL of the tissue suspension to a final assay volume of 1 mL and a final tissue concentration of approximately 30 mg tissue net weight/mL. Non-specific binding was defined by addition of a final concentration of 1 μM haloperidol. All tubes were incubated at 37° C. for 150 min before termination of the reaction by rapid filtration over Schleicher & Schuell GF 3362 glass fibre filters [previously soaked in a solution of 0.5% polyethylenimine for at least 1 h]. Filters were then washed with four times with 4 mL of cold Tris-HCl buffer (50 mM, pH 7.4). Following addition of scintillation cocktail, the samples were allowed to equilibrate overnight. The amount of bound radioactivity was determined by liquid scintillation spectrometry using a Wallac Winspectral 1414 liquid scintillation counter. Protein concentrations were determined by the method of Lowry et al. (1951).

T1 sequence (Q60492 whole entry): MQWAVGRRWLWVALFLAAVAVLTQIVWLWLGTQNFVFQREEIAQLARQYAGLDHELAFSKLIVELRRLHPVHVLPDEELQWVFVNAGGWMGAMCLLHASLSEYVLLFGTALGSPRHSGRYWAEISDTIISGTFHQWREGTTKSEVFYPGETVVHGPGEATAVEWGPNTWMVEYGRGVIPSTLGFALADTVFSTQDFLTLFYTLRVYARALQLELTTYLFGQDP

In the case of `Clc1ccc(-c2nn(CCCN3CCCCCC3)nc2-c2ccccc2)cc1` [compound 6], the “Sigma-1 Inhibition percent (0.01 μM)” value worked out at 36.5 and the “Sigma-1 Inhibition percent (0.1 μM)” value stood at 52.5.

On to `Clc1ccc(-c2nn(CCCCN3CCCCC3)nc2-c2ccccc2)cc1` [compound 10], for which the “Sigma-1 Inhibition percent (0.01 μM)” value is given as 26.1 and the “Sigma-1 Inhibition percent (0.1 μM)” value is listed as 59.1.

Regarding `Cc1nn(CCCN2CCCCC2)nc1-c1ccccc1` [compound 19], the “Sigma-1 Inhibition percent (0.01 μM)” value came to 31.2 and the “Sigma-1 Inhibition percent (0.1 μM)” value turned out to be 78.5.

On to `c1ccc(-c2cnn(CCCN3CCCCC3)n2)cc1` [compound 20], for which the “Sigma-1 Inhibition percent (0.01 μM)” value worked out at 43.6 and the “Sigma-1 Inhibition percent (0.1 μM)” value is recorded as 82.2.

In the case of `Fc1cc(Br)ccc1-c1cnn(CCCN2CCCCC2)n1` [compound 21], the “Sigma-1 Inhibition percent (0.01 μM)” value came to 25.8 and the “Sigma-1 Inhibition percent (0.1 μM)” value stood at 83.4.
